{"source": "patent US12521425B2", "about": "“Method of liver cancer treatment with safranal-based formulations” (priority 2019, dated 2026)", "key": {"HepG2 cells [1]": {"system": "HepG2 cells", "assay": "Annexin V binding assay", "type": "cell-based", "settings": "HepG2, 500 μM, after 48 hours; increase from 8%"}, "HepG2 cells [2]": {"system": "HepG2 cells", "assay": "RNAseq differential gene expression and GO enrichment", "type": "cell-based, Homo sapiens", "settings": "for genes significantly differentially expressed: vs untreated", "method": "RNAseq libraries construction and sequencing. Total RNA was isolated from three biological replicates of safranal treatments and untreated sample using RNeasy Mini Kit (Qiagen) following the manufacturer's instructions. The RNAseq libraries were prepared using TruSeq RNA sample prep kit (Illumina, Inc.) following the manufacturer's instructions. Briefly, TruSeq RNA sample prep kit converts the poly-A containing mRNA in total RNA into a cDNA library using poly-T oligo-attached magnetic bead selection. Following mRNA purification, the RNA is chemically fragmented prior to reverse transcription and cDNA generation. The fragmentation step results in an RNAseq library that includes inserts that range in size from approximately 100-400 bp. The average insert size in an Illumina TruSeq RNA sequencing library is approximately 200 bp. The cDNA fragments then go through an end repair process, the addition of a single ‘A’ base to the 3′ end and then ligation of the adapters. Then, the products are purified and enriched with PCR to create the final double stranded cDNA libraries. Finally, libraries quality control and quantification were performed with a Bioanalyzer Chip DNA 1000 series II (Agilent) and sequenced directly using the high-throughput Illumina HiSeq sequencing system (Illumina, Inc.).\nAlignment and analysis of Illumina reads against the reference genome. The data was processed through the standard RNAseq analysis pipeline at NYUAD. Briefly, alignments were performed using tophat2 v2.1.0 with the parameters “-no-novel-junctions” and “-G” when specifying the genome file. Following the tophat2 alignment stage, read counts were generated using HTseq count, and the counts were analyzed using the DESeq2 R library. The reference genome and GFF annotation correspond to the Homo sapiens GRCh38.p2 genome version. Venn diagram summarizing the gene expression analysis was constructed using the web-based tool InteractiVenn. Heatmaps were produced by Excel.\nGene set enrichment analysis. Functional and gene set enrichment analysis of DEGs was performed using eXploring Genomic Relations (XGR) which is an open source tool for enrichment analysis with default parameters. The enrichment test is based on Hypergeometric distribution to identify the enriched gene ontology terms. The false positive rate was calculated by simulating a random set of genes of different sizes and found they were independent of the size of gene sets. Network analysis of over-representation GO terms was performed using the Biological Networks Gene Ontology tool (BiNGO) plug-in for Cytoscape. BiNGO retrieved the relevant GO Biological process annotation then tested for significance using the hypergeometric test and corrected multiple testing using Benjamini and Hochberg false discovery rate (FDR) correction ≤0.05."}, "[3]": {"system": "DEN-induced hepatic neoplasia", "assay": "Serum ALT and AST in DEN-induced HCC model", "type": "in vivo, male Wistar rats", "settings": "HCC rats, oral gavage 5 days a week, weeks 17-19, safranal 200 mg/kg, sorafenib 10 mg/kg, mean±SEM, n=6", "method": "(§1) A modified version of the protocol described by DePeralta et al. (2016) and Schiffer et al. (2005) was used here to establish the hepatocarcinogenesis model.\n(§2) On the first 15 weeks, the control PBS group was treated with 1×PBS, whereas the experimental groups were given an intraperitoneal injection (IP) of 50 mg/kg of diethylnitrosoamine (DEN, Sigma Aldrich), a widely used chemical for inducing cancer, once a week. DEN was diluted with 1×PBS. Following a one-week break (week 16), the next three weeks (weeks 17 to 19) of treatment commenced. All drugs were administrated by oral gavage. All doses were chosen according to literature (Alsaied et al., 2014; Karafakioglu et al., 2017). For the HCC+sorafenib group, the drug (Carbosynth Limited) was administered at a dose of 10 mg/kg, five days a week. For the HCC+safranal group, the drug (Sigma Aldrich) was administered at a dose of 200 mg/kg, five days a week. For the HCC+safranal+sorafenib group, the drugs were administered at a dose of 200 mg/kg safranal+10 mg/kg sorafenib, five days a week. Both safranal and sorafenib were diluted with 1×PBS and drops of Tween 80. […] After 24-hours from last treatment, the rats were euthanized by mild diethyl ether and dissected in equal conditions. Blood and whole liver were collected.\nRats were euthanized then blood was collected by decapitation and processed for later investigation. The blood was collected in collection tubes (BD Vacutainer) and serum was separated by centrifugation at 1200× g for 10 minutes. Serum was collected and flash frozen immediately then stored at −80° C. for further analysis.\nAlanine Transaminase (ALT), and Aspartate Aminotransferase (AST) assays were performed using commercial kits (Abcam), according to the protocol provided. ALT and AST activities were measured spectrophotometrically using Epoch by BioTek."}, "[4]": {"system": "DEN-induced hepatic neoplasia", "assay": "Western blotting of liver in DEN-induced HCC model", "type": "in vivo, male Wistar rats", "settings": "liver of HCC rats", "method": "as §1, §2\nOne hundredth gm (10 mg) liver was homogenized using 200 μl RIPA buffer (Sigma Aldrich) mixed with 2 μl protease inhibitor and 2 μl phosphatase inhibitor (Sigma Aldrich), and centrifuged at 4° C., 15,000 rpm for 15 minutes. Whole cell lysate was taken and stored at −80° C. Protein concentration was measured by Pierce BCA Protein Assay Kit with Promega GloMax Discover. A total of 35 μg of protein was loaded on a sodium dodecyl sulfate-polyacrylamide gel electrophoresis gel. The gel was then transferred to polyvinylidene difluoride membrane. The membrane was then blocked with 5% BSA in TBST for one hour at room temperature. Membranes were incubated with anti-Proliferating Cell Nuclear Antigen (PCNA), anti-PolyADP-ribose Polymerase (PARP), anti-caspase-3 (Cell Signaling Technology Inc.), anti-caspase-9 (Novus Biologicals), anti-Bax, anti-Bcl-2 (Santa Cruz), anti-Cdk1, anti-Cyclin B1, anti-Cdc25B (Cell Signaling Technology Inc.) over night at 4° C., then with HRP conjugated secondary, anti-mouse or anti-rabbit, antibody (Cell Signaling Technology Inc.) for one hour at room temperature. All primary and secondary antibodies were diluted in 5% BSA in TBST. Blots were incubated in WesternSure PREMIUM Chemiluminescent Substrate for antibodies' detection. Signal was visualized using Bio-Rad ChemiDoc XRS+System. Band density and quantification was done using ImageJ (Amin et al., 2011). Total protein was used as a loading control and stained using SYPRO Ruby protein gel stain according to the protocol provided (Thermo Fisher Scientific) (Aldridge et al., 2008; Hu et al., 2016)."}}, "data": [{"smiles": "CC1=C(C=O)C(C)(C)CC=C1", "note": "[safranal]", "values": [{"measurement": "number of dead cells (annexin V)", "setting": "HepG2 cells [1]", "result": 31, "unit": "%"}, {"measurement": "genes downregulated", "setting": "HepG2 cells [2]; 12 hours", "result": "3,769 genes"}, {"measurement": "genes upregulated", "setting": "HepG2 cells [2]; 12 hours", "result": "2,812 genes"}, {"measurement": "genes significantly differentially expressed", "setting": "HepG2 cells [2]; 12 hours", "result": "6,581 genes"}, {"measurement": "genes downregulated", "setting": "HepG2 cells [2]; 24 hours", "result": "5,331 genes"}, {"measurement": "genes upregulated", "setting": "HepG2 cells [2]; 24 hours", "result": "2,458 genes"}, {"measurement": "genes significantly differentially expressed", "setting": "HepG2 cells [2]; 24 hours", "result": "7,789 genes"}, {"measurement": "N, GO term Cell migration", "setting": "HepG2 cells [2]; Downregulated 12 h", "result": 28}, {"measurement": "N, GO term Growth", "setting": "HepG2 cells [2]; Downregulated 12 h", "result": 27}, {"measurement": "N, GO term Wound healing", "setting": "HepG2 cells [2]; Downregulated 12 h", "result": 25}, {"measurement": "N, GO term Cell adhesion", "setting": "HepG2 cells [2]; Downregulated 24 h", "result": 149}, {"measurement": "N, GO term Signal transduction", "setting": "HepG2 cells [2]; Downregulated 24 h", "result": 327}, {"measurement": "N, GO term Wound healing", "setting": "HepG2 cells [2]; Downregulated 24 h", "result": 32}, {"measurement": "N, GO term Cellular Response to DNA damage stimulus", "setting": "HepG2 cells [2]; Upregulated 12 h", "result": 48}, {"measurement": "N, GO term Proteasome-mediated ubiquitin-dependent protein catabolic process", "setting": "HepG2 cells [2]; Upregulated 12 h", "result": 47}, {"measurement": "N, GO term Response to unfolded protein", "setting": "HepG2 cells [2]; Upregulated 12 h", "result": 14}, {"measurement": "N, GO term Apoptotic mitochondrial changes", "setting": "HepG2 cells [2]; Upregulated 24 h", "result": 6}, {"measurement": "N, GO term Proteasome-mediated ubiquitin-dependent protein catabolic process", "setting": "HepG2 cells [2]; Upregulated 24 h", "result": 50}, {"measurement": "N, GO term Response to unfolded protein", "setting": "HepG2 cells [2]; Upregulated 24 h", "result": 12}, {"measurement": "ALT", "setting": "[3]", "result": "10.93 ± 0.29^b**^,c* mU/ml"}, {"measurement": "AST", "setting": "[3]", "result": "7.80 ± 2.02", "unit": "mU/ml"}, {"measurement": "Bax/Bcl-2 ratio", "setting": "[4]", "result": "favored the apoptotic effect"}, {"measurement": "TDP1 levels", "setting": "[4]", "result": "lower levels of TDP1"}, {"measurement": "expression of pro-caspases-9 & 3 and whole PARP", "setting": "[4]; compared to HCC group", "result": "significantly decreased"}, {"measurement": "expression of anti-apoptotic protein Bcl-2", "setting": "[4]; compared to HCC groups", "result": "decreased"}, {"measurement": "expression of pro-apoptotic protein Bax", "setting": "[4]; compared to HCC groups", "result": "increased"}, {"measurement": "Cdk1, cyclin B1, Cdc25B levels", "setting": "[4]; comparing to HCC animals", "result": "significantly decreased their levels"}, {"measurement": "PCNA (proliferation-related protein)", "setting": "[4]; n=4", "result": "significantly downregulated PCNA"}]}]}
